Results published in patent US11214803B2, “Modulators of YAP1 expression” (Ionis Pharmaceuticals, Inc., priority 2019, dated 2022).
Strand notation (5' to 3'): a small letter for the sugar, then the base; units joined by * are phosphorothioate-linked, units joined directly phosphodiester-linked; [ ] holds rarer units or linkages, { } end groups; capitals alone tell only the bases. k = constrained ethyl (cEt); [5mC] = 5-methylcytosine; d = 2'-deoxy (DNA)

Assays:
Yap1 mRNA [1] = assay: Antisense inhibition of human Yap1 in A-431 cells by cEt gapmers, single dose (Example 2, RTS4814); format: cell-based; settings: 3-10-3 cEt gapmers targeting SEQ ID NO.: 1, and 2
Method in brief: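 Read-out is Yap1 mRNA as percent of untreated cells, by real-time RT-PCR (probe set RTS4814) normalized to total RNA via RIBOGREEN. Cells were A-431 dosed with 2,000 nM gapmer without transfection for approximately 48 hours.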

Yap1 mRNA [2] = assay: Dose-dependent inhibition of human Yap1 in A-431 cells (Example 8, 10,000 cells per well, RTS4814); format: cell-based; settings: free uptake, approximately 48 hours, RTS4814; for Yap1 mRNA, % UTC: A-431 cells, 10,000 cells per well; for IC50: A-431 cells, linear regression on log/linear plot
Method in brief: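 Yap1 mRNA, normalized to RIBOGREEN total RNA and expressed as % untreated control, was read with RTS4814 about 48 h after free-uptake oligonucleotide treatment of A-431 cells at 10,000 cells/well. IC50 derived by linear regression of log/linear data.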

[3] = Table 33, Yap1 mRNA, percent of untreated control
[4] = Yap1 mRNA as percent of untreated control, A-431 cells, Table 31
[5] = Yap1 mRNA as percent of untreated control, A-431 cells, Table 30
[6] = Table 32, Yap1 mRNA, percent of untreated control

Substance | YAP1 (% UTC) (Yap1 mRNA [1]; [3]) | Yap1 mRNA, % UTC (Yap1 mRNA [2]; 31.3 nM) [% UTC] | Yap1 mRNA, % UTC (Yap1 mRNA [2]; 125.0 nM) [% UTC] | Yap1 mRNA, % UTC (Yap1 mRNA [2]; 500.0 nM) [% UTC] | Yap1 mRNA, % UTC (Yap1 mRNA [2]; 2000.00 nM) [% UTC] | IC50 (Yap1 mRNA [2]) [nM] | YAP1 (% UTC) (Yap1 mRNA [1]; [4]) | YAP1 (% UTC) (Yap1 mRNA [1]; [5]) | YAP1 (% UTC) (Yap1 mRNA [1]; [6])
1074451 (kG*kA*k[5mC]*dT*dA*dA*dT*dG*dA*dT*dA*dG*d[5mC]*kA*k[5mC]*kT; antisense) [compound 1074451] | 6 | 63 | 26 | 8 | 4 | 40 | – | – | –
1074417 (kT*k[5mC]*kT*dT*dT*dA*dG*dA*dG*d[5mC]*d[5mC]*dA*dA*k[5mC]*kT*kG; antisense) [compound 1074417] | – | 68 | 26 | 7 | 3 | 100 | 2 | – | –
1076369 (antisense kT*kA*kT*dT*d[5mC]*dG*dG*dT*dA*dT*dT*dT*dT*k[5mC]*kT*kA) [compound 1076369] | – | 60 | 20 | 6 | 3 | < 20 | 2 | – | –
1074480 (kT*k[5mC]*kA*dT*dT*dT*dG*d[5mC]*d[5mC]*dT*dA*dG*dG*kT*kT*k[5mC]; antisense) [compound 1074480] | – | 33 | 9 | 5 | 3 | < 20 | – | 3 | –
1074610 (DNA kT*k[5mC]*kT*dA*dG*dT*dT*dA*d[5mC]*dA*dT*d[5mC]*dA*kT*k[5mC]*kT) [compound 1074610] | – | 57 | 20 | 10 | 7 | < 20 | – | – | 5
1074736 (kT*k[5mC]*kA*dG*dT*dA*d[5mC]*dA*dG*dA*dG*dG*dG*k[5mC]*kA*kT; antisense) [compound 1074736] | – | 34 | 12 | 7 | 7 | < 20 | – | 4 | –
1074448 (kT*kA*kA*dT*dG*dA*dT*dA*dG*d[5mC]*dA*d[5mC]*dT*kA*kG*kG; antisense) [compound 1074448] | – | 54 | 13 | 4 | 3 | < 20 | – | 3 | –
1074419 (kA*kT*kT*d[5mC]*dT*dT*dT*dA*dG*dA*dG*d[5mC]*d[5mC]*kA*kA*k[5mC]; antisense) [compound 1074419] | 4 | 48 | 15 | 5 | 3 | < 20 | – | – | –
1074737 (kT*kT*k[5mC]*dA*dG*dG*dT*d[5mC]*dA*dG*dT*dA*d[5mC]*kA*kG*kA; antisense) [compound 1074737] | – | 50 | 21 | 8 | 6 | < 20 | 7 | – | –
1076467 (kG*kT*kA*dT*dT*dT*dA*dG*dA*dG*d[5mC]*dT*dT*kA*kA*kG; antisense) [compound 1076467] | 5 | 24 | 6 | 3 | 2 | < 20 | – | – | –
1076465 (kG*k[5mC]*kT*dT*dA*dA*dG*dG*dA*dA*dT*dA*dT*kA*k[5mC]*kA; antisense) [compound 1076465] | – | 72 | 32 | 14 | 7 | 100 | 5 | – | –
1076115 (k[5mC]*kA*kT*dT*dA*dG*dT*dA*dA*dG*d[5mC]*dT*dG*kA*kG*kG; antisense) [compound 1076115] | 7 | 47 | 17 | 9 | 6 | < 20 | – | – | –
1074672 (antisense k[5mC]*k[5mC]*kA*dA*dG*dT*dA*dG*d[5mC]*dT*dT*dT*dG*kA*kT*k[5mC]) [compound 1074672] | – | 34 | 18 | 10 | 7 | < 20 | – | 6 | –
1074290 (antisense k[5mC]*kT*kG*dA*d[5mC]*dT*dG*dA*dT*dT*d[5mC]*dT*d[5mC]*kT*kG*kG) [compound 1074290] | – | 49 | 17 | 9 | 7 | < 20 | – | – | 5
1076114 (kA*kT*kT*dA*dG*dT*dA*dA*dG*d[5mC]*dT*dG*dA*kG*kG*kA; antisense) [compound 1076114] | – | 34 | 11 | 6 | 5 | < 20 | – | – | 3
1075155 (kT*k[5mC]*kA*dT*dT*dA*dT*dA*dA*dT*dG*dG*dG*kA*kG*kG; antisense) [compound 1075155] | 5 | 51 | 15 | 6 | 4 | < 20 | – | – | –
1075089 (k[5mC]*kA*kT*dT*dT*dA*dT*dA*dG*dT*d[5mC]*dA*dG*kG*kT*kT; antisense) [compound 1075089] | – | 45 | 9 | 3 | 3 | < 20 | 2 | – | –
1075792 (kG*kA*kT*dT*dA*dG*dA*dA*dA*dG*dT*dG*d[5mC]*k[5mC]*kT*kT; antisense) [compound 1075792] | – | 79 | 41 | 15 | 10 | 100 | – | 6 | –
1074578 (DNA kG*k[5mC]*kT*dT*dA*dT*dT*dT*d[5mC]*dT*dG*dT*d[5mC]*kA*kT*kG) [compound 1074578] | – | 66 | 30 | 18 | 11 | 100 | – | – | 8
1076464 (k[5mC]*kA*kT*dA*dT*dA*d[5mC]*dA*dA*dT*dT*d[5mC]*dT*kG*k[5mC]*k[5mC]; antisense) [compound 1076464] | – | 36 | 10 | 3 | 2 | < 20 | – | 2 | –
1074609 (DNA k[5mC]*kT*kA*dG*dT*dT*dA*d[5mC]*dA*dT*d[5mC]*dA*dT*k[5mC]*kT*k[5mC]) [compound 1074609] | – | 65 | 29 | 15 | 11 | 100 | 8 | – | –
1074675 (antisense kA*kA*kA*dT*dT*dA*dT*dA*dG*dG*d[5mC]*dA*d[5mC]*kT*k[5mC]*k[5mC]) [compound 1074675] | 6 | 47 | 18 | 6 | 3 | < 20 | – | – | –
1074800 (k[5mC]*kA*kA*dA*dT*dA*dG*dT*dG*d[5mC]*dT*dT*dT*kG*kG*kA; antisense) [compound 1074800] | – | 48 | 21 | 10 | 7 | < 20 | – | 6 | –
1076049 (kA*kG*kA*dT*dT*dA*dA*dA*dG*dG*d[5mC]*dT*dG*kG*kA*kA; antisense) [compound 1076049] | – | 61 | 16 | 13 | 6 | < 20 | 4 | – | –
1076017 (k[5mC]*kT*kA*dA*dT*dA*dG*dG*dA*dT*dG*dG*dA*kT*kT*k[5mC]; antisense) [compound 1076017] | – | 59 | 25 | 9 | 5 | 30 | 5 | – | –
1075249 (kA*kT*kT*dA*d[5mC]*dG*dA*dT*dT*dA*dG*dA*dT*k[5mC]*kA*kG; antisense) [compound 1075249] | – | 77 | 37 | 16 | 8 | 100 | 5 | – | –
